The results in this text go back to patent US11840686B2, “Modulation of prekallikrein (PKK) expression” (Ionis Pharmaceuticals, Inc., priority 2013, dated 2023).

This data set deals with human PKK mRNA. Briefly: Antisense inhibition of human PKK mRNA in HepaRG cells, 5,000 nM (Example 2). In kind it is cell-based. Put shortly: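 Percent inhibition of PKK mRNA is reported relative to untreated cells, after adjustment for total RNA by RIBOGREEN. Gapmers of 16–20 nucleosides with 2′-MOE wings were delivered at 5,000 nM by electroporation into HepaRG cells and left for roughly 24 hours before RNA isolation.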

Where [1] appears, read: human PKK mRNA, HepaRG cells, 5-10-5 motif oligonucleotides targeting SEQ ID NO: 1 and 10.
Setting [2] is: Table 8, HepaRG cells, electroporation with 5,000 nM antisense oligonucleotide, approx. 24 hours, PKK mRNA by RT-PCR (RTS3454), relative to untreated control cells.
Where [3] appears, read: HepaRG cells, electroporation with 5,000 nM antisense oligonucleotide, approximately 24 hours, PKK mRNA by RT-PCR (RTS3454), relative to untreated control cells, Table 5 experiment.
The mark [4] stands for this setting: HepaRG cells, 5,000 nM antisense oligonucleotide, 5-10-5 gapmers, Table 17.
Setting [5] is: Table 9 experiment, HepaRG cells, 20,000 cells per well, electroporation with 5,000 nM antisense oligonucleotide, approx. 24 hours, PKK mRNA by RT-PCR (RTS3454), relative to untreated control cells.
[6] abbreviates: Table 10 experiment, HepaRG cells, 20,000 cells per well, electroporation with 5,000 nM antisense oligonucleotide, approx. 24 hours, PKK mRNA by RT-PCR (RTS3454), relative to untreated control cells.
The mark [7] stands for this setting: HepaRG cells, 5,000 nM antisense oligonucleotide, 5-10-5 gapmers, Table 16.
Where [8] appears, read: human PKK mRNA, HepaRG cells, 5,000 nM antisense oligonucleotide, Table 18.
Where [9] appears, read: HepaRG cells, 5,000 nM antisense oligonucleotide, human PKK mRNA, Table 18.
The mark [10] stands for this setting: HepaRG cells, electroporation, 5,000 nM antisense oligonucleotide, approx. 24 hours, primer probe set RTS3454, relative to untreated control cells, Table 11.
The mark [11] stands for this setting: Table 7, HepaRG cells, electroporation with 5,000 nM antisense oligonucleotide, approx. 24 hours, PKK mRNA by RT-PCR (RTS3454), relative to untreated control cells.

Strand notation (5' to 3'): a small letter for the sugar, then the base; units joined by * are phosphorothioate-linked, units joined directly phosphodiester-linked; [ ] holds rarer units or linkages, { } end groups; capitals alone tell only the bases. e = 2'-O-(2-methoxyethyl) (MOE); [5mC] = 5-methylcytosine; d = 2'-deoxy (DNA)

In general, % inhibition refers to how much of the control response was suppressed. In the case of “547601 (antisense eG*eT*eA*e[5mC]*e[5mC]*dT*dA*dT*dA*dA*d[5mC]*dT*d[5mC]*dT*dA*eA*e[5mC]*eA*eG*eT) [compound 547601]”, the “% inhibition” value (human PKK mRNA in HepaRG cells, 5-10-5 gapmers, Table 14) is 75%.

As for “546898 (eA*eA*e[5mC]*eA*eG*dT*dA*dT*d[5mC]*dA*d[5mC]*dT*dG*dT*d[5mC]*e[5mC]*eT*eA*eT*eG; antisense) [compound 546898]”, the “% inhibition” value under setting [1] stood at 91%.

With “546260 (eG*eA*eA*eA*eA*dA*d[5mC]*dT*dG*dA*d[5mC]*dA*dG*d[5mC]*dG*eA*eA*eT*e[5mC]*eA; antisense) [compound 546260]”, under setting [2], the “% inhibition” value amounted to 84%.

In the case of “547272 (e[5mC]*eA*e[5mC]*eT*eT*dA*dA*dA*dA*dA*dT*dG*dA*dA*d[5mC]*eG*eG*eT*e[5mC]*eT; antisense) [compound 547272]”, under setting [3], the “% inhibition” value worked out at 82%.

Turning to “547768 (antisense eT*eT*eG*e[5mC]*e[5mC]*d[5mC]*dT*d[5mC]*dA*d[5mC]*dA*d[5mC]*dA*dT*dT*e[5mC]*eG*eA*eA*eT) [compound 547768]”, under setting [4], the “% inhibition” value is on record as 0%.

For the substance “546256 (eT*e[5mC]*eA*eT*e[5mC]*dT*dT*dT*dG*dT*dG*d[5mC]*dA*dA*dG*eT*e[5mC]*eT*e[5mC]*eT; antisense) [compound 546256]”, under setting [2], the “% inhibition” value amounted to 83%.

Regarding “547432 (e[5mC]*e[5mC]*e[5mC]*eA*eG*dT*dG*dT*dT*dA*d[5mC]*dA*d[5mC]*dA*dA*eT*e[5mC]*eT*e[5mC]*eA; antisense) [compound 547432]”, the “% inhibition” value under setting [2] was found to be 90%.

“547441 (antisense eG*eG*eT*eG*eT*d[5mC]*d[5mC]*dT*dA*dT*dG*dA*dG*dT*dG*eA*e[5mC]*e[5mC]*e[5mC]*eT) [compound 547441]”: the “% inhibition” value under setting [2] is given as 62%.

“547474 (antisense eT*eG*eT*eA*eG*dA*dA*dT*dA*dT*dT*dT*dT*dG*dG*eA*eT*eT*eT*e[5mC]) [compound 547474]”: the “% inhibition” value by setting is: under setting [5], 51%; under setting [6], 34%.

Take “546983 (eG*eA*eT*eG*eA*d[5mC]*d[5mC]*dT*dG*d[5mC]*dA*dG*dA*dT*dG*e[5mC]*eA*e[5mC]*eA*eG; antisense) [compound 546983]”: the “% inhibition” value under setting [7] is reported as 74%.

As for “548779 (antisense eG*eT*e[5mC]*e[5mC]*dT*dA*dT*dA*dA*d[5mC]*dT*dA*dT*eA*eA*e[5mC]*eA) [compound 548779]”, the “% inhibition” value under setting [8] is 0%.

On to “547664 (eG*eT*eA*e[5mC]*e[5mC]*dT*dA*dT*dA*dA*d[5mC]*dT*dA*dT*dA*eA*e[5mC]*eA*eG*eT; antisense) [compound 547664]”, for which the “% inhibition” value under setting [1] amounted to 2%.

With “548712 (DNA eA*e[5mC]*eT*dG*dT*dA*d[5mC]*dT*dA*dG*dT*dT*dT*e[5mC]*e[5mC]*eT; antisense) [compound 548712]”, the “% inhibition” value under setting [9] is recorded as 9%.

As for “547428 (eT*e[5mC]*eA*eA*eA*dG*dA*dG*dT*dA*dA*d[5mC]*d[5mC]*dA*dG*eA*eG*e[5mC]*eT*e[5mC]; antisense) [compound 547428]”, the “% inhibition” value under setting [2] is listed as 78%.

Consider “547656 (e[5mC]*eA*eA*eT*eA*dT*d[5mC]*dA*d[5mC]*dT*dG*dT*d[5mC]*d[5mC]*dT*eA*eT*eA*eA*e[5mC]; antisense) [compound 547656]”, for which the “% inhibition” value under setting [1] is 42%.

For “546369 (antisense e[5mC]*eT*e[5mC]*eA*eG*dG*dT*dT*dG*dT*dA*dA*dA*dA*dA*eT*eT*eG*e[5mC]*e[5mC]) [compound 546369]”, the “% inhibition” value under setting [10] stood at 51%.

For the substance “546970 (eG*e[5mC]*e[5mC]*e[5mC]*eA*dA*dG*d[5mC]*d[5mC]*dT*dA*d[5mC]*dA*dT*dG*e[5mC]*eA*eT*eA*e[5mC]; antisense) [compound 546970]”, the “% inhibition” value under setting [7] is 61%.

For the substance “547689 (antisense eG*eT*eA*eA*e[5mC]*dA*dA*dT*dA*dT*d[5mC]*dA*d[5mC]*dT*dG*eT*e[5mC]*e[5mC]*eT*eA) [compound 547689]”, under setting [7], the “% inhibition” value turned out to be 73%.

For “546244 (eT*eA*eA*eA*eT*dT*dT*dT*dA*dG*dA*dA*dT*dG*dG*e[5mC]*eA*eG*eG*eG; antisense) [compound 546244]”, the “% inhibition” value under setting [11] amounted to 27%.

For the substance “546773 (eT*e[5mC]*eT*e[5mC]*eT*dA*dG*d[5mC]*dA*dT*d[5mC]*d[5mC]*dT*dA*dG*eT*e[5mC]*e[5mC]*eT*e[5mC]; antisense) [compound 546773]”, the “% inhibition” value (Table 13, human PKK mRNA in HepaRG cells, 5-10-5 gapmers) is 67%.

As for “547733 (eT*eA*eG*eG*eA*dT*dT*dG*dG*dT*dG*dG*dT*dG*dG*eG*eA*eT*eT*eG; antisense) [compound 547733]”, under setting [4], the “% inhibition” value stood at 0%.

As for “547452 (antisense eG*eT*eT*eT*eT*dG*dG*dT*dG*dA*dA*dT*dA*dA*dT*eA*eA*eT*e[5mC]*eT) [compound 547452]”, the “% inhibition” value runs as follows: under setting [5], 47%; under setting [6], 62%.

Take “548708 (DNA eT*eA*e[5mC]*dT*dA*dG*dT*dT*dT*d[5mC]*d[5mC]*dT*dA*eT*eA*eA; antisense) [compound 548708]”: the “% inhibition” value under setting [9] was found to be 0%.

With “547399 (eG*e[5mC]*eA*eG*eG*dG*dT*dT*d[5mC]*dA*dG*dG*dT*dA*dA*eA*eG*eT*eT*e[5mC]; antisense) [compound 547399]”, under setting [11], the “% inhibition” value was 10%.

Consider “546365 (antisense eA*eG*eA*e[5mC]*eT*d[5mC]*dT*dG*dG*dA*d[5mC]*dT*dG*d[5mC]*dT*eT*e[5mC]*eT*e[5mC]*eA) [compound 546365]”, for which the “% inhibition” value under setting [10] is on record as 64%.

Take “546495 (eT*eG*e[5mC]*eA*eT*dA*d[5mC]*dT*d[5mC]*dG*d[5mC]*d[5mC]*dT*dT*dT*eG*eT*eG*eA*e[5mC]; antisense) [compound 546495]”: the “% inhibition” value (HepaRG cells, electroporation, 5,000 nM antisense oligonucleotide, approx. 24 hours, primer probe set RTS3454, relative to untreated control cells, Table 12) is given as 65%.

Regarding “547774 (antisense eG*eA*eG*eA*e[5mC]*dA*dG*dT*dT*dT*dG*dG*d[5mC]*dA*dA*eG*e[5mC]*eT*eA*e[5mC]) [compound 547774]”, the “% inhibition” value under setting [4] came out at 46%.

Regarding “547709 (antisense eA*eG*e[5mC]*e[5mC]*e[5mC]*dA*dA*dT*dG*dT*d[5mC]*d[5mC]*dT*dA*dA*e[5mC]*e[5mC]*eT*eG*eT) [compound 547709]”, under setting [7], the “% inhibition” value was 76%.

Regarding “547080 (eG*eT*eG*e[5mC]*eA*dA*dG*dA*d[5mC]*d[5mC]*dT*dT*dG*d[5mC]*dT*eT*eG*e[5mC]*e[5mC]*eA; antisense) [compound 547080]”, the “% inhibition” value under setting [4] is recorded as 54%.

In the case of “546231 (e[5mC]*eT*eT*eG*eG*dT*dG*dT*dG*d[5mC]*d[5mC]*dA*d[5mC]*dT*dT*eT*e[5mC]*eA*eG*eA; antisense) [compound 546231]”, under setting [11], the “% inhibition” value was determined as 79%.

Turning to “546209 (antisense eG*e[5mC]*eT*eT*e[5mC]*dA*dG*dT*dG*dA*dG*dA*dA*dT*d[5mC]*e[5mC]*eA*eG*eA*eT) [compound 546209]”, the “% inhibition” value (HepaRG cells, electroporation with 5,000 nM antisense oligonucleotide, approximately 24 hours, PKK mRNA by RT-PCR (RTS3454), relative to untreated control cells, Table 6 experiment) stood at 73%.

With “546975 (eG*eG*e[5mC]*e[5mC]*eT*dG*dG*dA*dT*dA*d[5mC]*dA*dG*d[5mC]*d[5mC]*eT*eT*eT*e[5mC]*eT; antisense) [compound 546975]”, the “% inhibition” value under setting [7] is 70%.

In the case of “546173 (antisense e[5mC]*eG*eA*eT*eG*dT*dA*d[5mC]*dT*dT*dT*dT*dG*dG*d[5mC]*eA*eG*eG*eG*eT) [compound 546173]”, the “% inhibition” value under setting [3] is on record as 84%.

In the case of “547378 (eT*eA*e[5mC]*eA*eT*dT*dT*dG*dT*dA*dT*dA*dG*dA*dA*eT*eG*eT*eA*eA; antisense) [compound 547378]”, the “% inhibition” value under setting [11] is 0%.

As for “546138 (eA*eA*eA*e[5mC]*eA*d[5mC]*dA*dA*dT*dT*dG*d[5mC]*dT*dT*d[5mC]*eT*eT*eG*eG*eA; antisense) [compound 546138]”, under setting [3], the “% inhibition” value was 69%.

Consider “548771 (antisense eA*eT*eA*eA*d[5mC]*dA*dG*dT*dA*dT*d[5mC]*dA*d[5mC]*eT*eG*eT*e[5mC]) [compound 548771]”, for which the “% inhibition” value under setting [8] is recorded as 62%.

Consider “547470 (antisense eT*e[5mC]*eG*eA*eG*dA*dA*dG*d[5mC]*d[5mC]*d[5mC]*d[5mC]*dA*dT*d[5mC]*e[5mC]*eG*eG*eT*eT) [compound 547470]”, for which the “% inhibition” value runs as follows: under setting [5], 70%; under setting [6], 68%.

Consider “547648 (e[5mC]*e[5mC]*eT*eA*eT*dA*dA*d[5mC]*dA*dG*dT*dA*dT*d[5mC]*dA*e[5mC]*eT*eG*eT*eA; antisense) [compound 547648]”, for which the “% inhibition” value under setting [1] came out at 83%.

As to “546140 (eG*e[5mC]*eT*eT*eG*d[5mC]*dT*dT*dG*dA*dA*dT*dA*dA*dA*eA*eT*e[5mC]*eA*eT; antisense) [compound 546140]”, the “% inhibition” value under setting [3] was found to be 60%.
